Patent publication US20250057832A1, “USE OF A CLASS OF 1,4-DIHYDRO-NAPHTHYRIDINE DERIVATIVES IN TREATMENT OF TUMORS” (NEURODAWN PHARMACEUTICAL CO., LTD., priority 2021, published 2025)

Tests used:
T98G cells [1] = test: Vacuolation induction in T98G cells (Example 1); assay type: cell-based, human; conditions: for Vacuolation rate (%): 6 hours, mean±SD; for Induction of vacuolation in T98 cells: FIG. 1 and Table 1
Description: T98G cells were stably passaged twice. When the cell density reached more than 85%, the cells were digested with 0.05% trypsin-EDTA for 3 minutes, resuspended with the culture medium, and plated in a 12-well plate at a certain density, with each well system being 1 mL. The cells were cultured for 24 hours, and added with the compound solution prepared above to each well according to the grouping, so that the concentrations of the compounds in the culture system were respectively 5 μM, 10 μM, 20 μM, 40 μM, and 60 μM. An equal volume of DMSO was added as a control well.
After 6 hours of drug treatment, the plates were observed under a microscope with a 20× objective lens, and five fields of view were randomly selected for each well to take photos and record. If in the observed field of view, bright vacuoles with clear border appeared in the cell, and at least one of the following conditions was met: 1) a cell contained at least 1 vacuole with a diameter greater than 3 μm; 2) a cell contained 3 or more vacuoles with a diameter within the range of 0.5-3 μm, the cell was considered to be methuosis-positive cells.
Among them, CELL positive: the number of methuosis-positive cells; CELL normal: the number of cells with normal morphology

T98G cells [2] = test: Cell proliferation inhibition assay, T98G, CellCounting-Lite 2.0 (Example 1); assay type: cell-based, human; conditions: for IC50: Homo sapiens, T98G, 72 hours of drug treatment
Description: T98G cells were stably passaged twice. When the cell density reached above 85%, the cells were digested with 0.05% trypsin-EDTA for 3 minutes, resuspended, plated in a 96-well plate at the corresponding density, and cultured for 24 hours. The cells were treated with drugs at final concentrations of the culture system of 0.41 μM, 1.23 μM, 3.7 μM, 11.1 μM, 33.3 μM, and 100 μM, respectively. After 72 hours of drug treatment, cell viability was determined using CellCounting-Lite™ 2.0 kit. The plate was added with reagents at 100 µL/well according to the CellCounting-Lite™ 2.0 kit instructions, and shaken for 10 minutes. The luminescence value (LUM) as read on a multi-function plate reader, and the relative viability of the cells was calculated.
Relative viability of tumor cells V (%)=(LUM-LUMbackground)/(LUMnormal control−LUMbackground)×100%. LUMbackground was the background reading of the complete culture medium well added with the detection reagent. The half inhibitory concentration (IC50) was calculated using GraphPad Prism 8.0.1 statistical software.

[3] = system: U87MG-Luc glioblastoma cell in situ transplantation tumor; test: S2 combined with TMZ in U87MG-Luc glioblastoma in situ transplantation tumor model in nude mice (Example 5); conditions: TMZ 3 mg/kg
Description: Before the transplantation, the U87MG-Luc cells were digested with 0.05%-trypsin-EDTA, resuspended with pre-cooled PBS to 4×10^7 cells/mL, and transferred to ice for later use. The nude mice were anesthetized with isoflurane gas, and then fixed on a stereotaxic machine in a prone position. The scalp of the nude mouse was disinfected with iodophor, and incised sagittally with a scalpel. The incision was cleaned with iodophor. The skull was exposed, and drilled with a skull drill extending 1.0 mm in front of the bregma and deviating the right side 2.0 mm. 5 μL of cell suspension (2×10^5 cells) was manually injected with a 10 μL flat-head microsyringe, with inserting the needle to a depth of 3.5 mm, withdrawing the needle 0.5 mm, and injecting for about 10 minutes. […]
On days 7, 14, and 21 after the transplantation, 200 μL of 15 mg/mL D-luciferin potassium salt solution, which was filtered and sterilized through a 0.22 μm filter, was injected intraperitoneally. […] Luorescence intensity was analyzed using Living Image software to obtain fluorescence intensity [p/s], which reflected the size of tumor tissue in the brain of experimental animals.
The survival conditions of experimental animals were monitored, and the animals' death dates were recorded timely.
Quantitative data are expressed as mean±standard error. […]

[4] = system: human glioma cell line T98G; conditions: single drug, maximum drug concentration of 20 M, 6 hours
Description: T98G cells were stably passaged twice. […] The cells were cultured for 24 hours, and added with the compound solution prepared above to each well according to the grouping, such that the compound concentrations in the culture system were 0.1 M, 1 M, 5 μM, and 20 M, respectively. An equal volume of DMSO was added as a control well.
If bright vacuoles with clear border appeared in the observed field of view, and at least one of the following conditions was met: 1) a cell contained at least one vacuole with a diameter greater than 3 μm; 2) a cell contained 3 or more vacuoles with a diameter within the range of 0.5-3 μm; the cell was considered as a methuosis-positive cell.

SMILES | Vacuolation rate (%) (T98G cells [1]; 5 μM) | Vacuolation rate (%) (T98G cells [1]; 10 μM) | Vacuolation rate (%) (T98G cells [1]; 20 μM) | Induction of vacuolation in T98 cells (T98G cells [1]) | IC50 (T98G cells [2]) | Rank of vacuolation-inducing activity among the derivatives (T98G cells [1]) | Vacuolation rate (%) (T98G cells [1]; 40 μM) | Proliferation inhibitory activity on T98G (in words) (T98G cells [2]; 72 hours) | Median survival period ([3]; vehicle 30) | Overall survival period ([3]; vehicle 33) | Induction of vacuolated cell phenotype [4]
CCOC(=O)C1=C(C)Nc2nc3c(c(N)c2[C@@H]1c1ccccc1Cl)CC(C)(C)CC3 [(+)-S2] | 1.3 ± 1.6% | 10.0 ± 4.2% | 69.3 ± 6.9% | can induce vacuolation | 5.3 µM | – | – | – | – | – | –
CCOC(=O)C1=C(C)Nc2nc3c(c(N)c2[C@H]1c1ccccc1Cl)CC(C)(C)CC3 [(−)-S2] | 1.2 ± 1.7% | 21.9 ± 9.0% | 96.47 ± 2.4% | can induce vacuolation | 9.8 µM | – | – | – | – | – | –
CCOC(=O)C1=C(C)Nc2nc3c(c(N)c2C1c1ccccc1)CCCC3 (stereo not drawn) [Compound S1] | 0.0% | 0.3 ± 0.6% | 2.23 ± 0.5% | can induce vacuolation | 47.8 µM | weakest vacuolation-inducing activity | 10.0 ± 5.6% | weak | – | – | –
C=CCOC(=O)C1=C(C)Nc2nc3c(c(N)c2C1c1cccc(F)c1)CC(C)(C)CC3 (stereo not drawn) [Compound S3] | 1.1 ± 1.5% | 5.34 ± 1.2% | 9.04 ± 3.8% | can induce vacuolation | 7 µM | – | 57.4 ± 13.9% | – | – | – | –
C#CCOC(=O)C1=C(C)Nc2nc3c(c(N)c2C1c1cccc(F)c1)CC(C)(C)CC3 (stereo not drawn) [Compound S4] | 0.6 ± 1.4% | 5.0 ± 1.3% | 10.43 ± 1.0% | can induce vacuolation | 12.7 µM | – | 76.9 ± 12.1% | – | – | – | –
COCCOC(=O)C1=C(C)Nc2nc3c(c(N)c2C1c1ccccc1Cl)CC(C)(C)CC3 (stereo not drawn) [Compound S5] | 1.4 ± 1.4% | 10.7 ± 0.90% | 35.1 ± 1.3% | can induce vacuolation | 4.5 µM | – | – | – | – | – | –
CC1=C(C(=O)OC(C)C)C(c2cccc(F)c2)c2c(nc3c(c2N)CC(C)(C)CC3)N1 (stereo not drawn) [Compound S6] | 0.00% | 10.5 ± 1.6% | 15.3 ± 1.3% | can induce vacuolation | 20.5 µM | – | 52.3 ± 2.5% | – | – | – | –
Cn1nnc2c(C(N)=O)ncn2c1=O [TMZ, Temozolomide] | – | – | – | – | – | – | – | – | 33.5 days | 35 days | –
COc1ccc([C@@H]2Sc3ccccc3N(CCN(C)C)C(=O)[C@@H]2OC(C)=O)cc1 [diltiazem] | – | – | – | – | – | – | – | – | – | – | None of calcium channel inhibitors nifedipine, verapamil, diltiazem, and flunarizine with a maximum drug concentration of 20 M could induce a vacuolated cell phenotype
Fc1ccc(C(c2ccc(F)cc2)N2CCN(C/C=C/c3ccccc3)CC2)cc1 [flunarizine] | – | – | – | – | – | – | – | – | – | – | None of calcium channel inhibitors nifedipine, verapamil, diltiazem, and flunarizine with a maximum drug concentration of 20 M could induce a vacuolated cell phenotype
